In patent publication US12246022B2, “Compositions and methods for treating, preventing or reversing age associated inflammation and disorders” (BROWN UNIVERSITY, priority 2019, dated 2025):
Where two headings read alike, the source gives them in different places.

Tests used:
Assay type in all cases: cell-based
[1] = test system: mouse LINE-1; experiment: Mouse LINE-1 retrotransposition assay (dual luciferase pYX016 reporter, HeLa cells)
Protocol: Elvucitabine was obtained by custom synthesis. […] HeLa cervical cancer cells were cultivated at 37° C. in a humidified 5% CO2 incubator in Dulbecco's Modified Eagle's Medium (DMEM)-high glucose, with 4500 mg/L glucose, L-glutamine, sodium pyruvate and sodium bicarbonate (Sigma), supplemented with 10% of heat inactivated fetal bovine serum (Thermo Fisher). Assays were performed as described in Xie et al., 2011^151 with several modifications. The reporter assay was performed in 96 well white Optical bottom plates. 6000 HeLa cells were seeded in each well 24 hours prior transfection and compound treatment. All compounds were resuspended in DMSO. Stock solution concentrations varied from 50 mM to 1.25 mM depending of the solubility of the compound. Serial dilutions (1:3) were prepared in DMSO. Ten different concentrations of each compound were tested in triplicate. Medium containing different concentrations of the compounds were prepared by adding 2 μL of the compound dilution to 1 mL of the culture medium. The final concentration of DMSO in the medium was 0.2%. FuGENE® HD transfection reagent (Promega) was used to transfect the plasmid pYX016 into the cells. The transfection mix was prepared in OpiMEM (Thermo Fisher) using a reagent to DNA ratio of 3.5:1 according to manufacturer's instructions. Culture medium was removed from the cells and discarded. The transfection mix (5 μL) was mixed with the compound containing medium (100 μL/well) and this was added onto the cells of each well. Cells were incubated for 48H at 37° C./5% CO2. Luciferase reporter activity was quantified with the Dual-Luciferase® Reporter Assay System (Promega) according to manufacturer's instructions for multiwell plates with the following modification: Cells were lysed directly on the multiwell plate with 30 μL of the passive lysis buffer (PLB) for 20 min at room temperature, with gentle shaking to ensure complete cell lysis (instead of 20 μL of PLB for 15 min). Firefly and Renilla luciferase signals were measured using a SpectraMax i3x Multi-Mode Microplate Reader. […] Relative L1 activity was calculated as Firefly/Renilla *10,000. […] The experiment was performed twice, independently.

[2] = test system: human LINE-1; experiment: Human LINE-1 retrotransposition assay (dual luciferase pYX017 reporter, HeLa cells, Table 11)
Protocol: Assays were performed as described in Xie et al., 2011^151 with several modifications. The reporter assay was performed in 96 well white Optical bottom plates. 6000 HeLa cells were seeded in each well 24 hours prior transfection and compound treatment. All compounds were resuspended in DMSO. Stock solution concentrations varied from 50 mM to 1.25 mM depending of the solubility of the compound. Serial dilutions (1:3) were prepared in DMSO. Ten different concentrations of each compound were tested in triplicate. Medium containing different concentrations of the compounds were prepared by adding 2 μL of the compound dilution to 1 mL of the culture medium. The final concentration of DMSO in the medium was 0.2%. FuGENE® HD transfection reagent (Promega) was used to transfect the plasmid pYX016 into the cells. The transfection mix was prepared in OpiMEM (Thermo Fisher) using a reagent to DNA ratio of 3.5:1 according to manufacturer's instructions. Culture medium was removed from the cells and discarded. The transfection mix (5 μL) was mixed with the compound containing medium (100 μL/well) and this was added onto the cells of each well. Cells were incubated for 48H at 37° C./5% CO2. Luciferase reporter activity was quantified with the Dual-Luciferase® Reporter Assay System (Promega) according to manufacturer's instructions for multiwell plates with the following modification: Cells were lysed directly on the multiwell plate with 30 μL of the passive lysis buffer (PLB) for 20 min at room temperature, with gentle shaking to ensure complete cell lysis (instead of 20 μL of PLB for 15 min). Firefly and Renilla luciferase signals were measured using a SpectraMax i3x Multi-Mode Microplate Reader. […] Relative L1 activity was calculated as Firefly/Renilla *10,000. […] The experiment was performed twice, independently. […] Because the human construct yields a lower signal, compounds were incubated with cells for 72 hours instead of 48 hours, and cells were seeded at a density of 2000/well instead of 6000/well. In addition, the transfection reagent to DNA ratio was 2:1 instead of 3.5:1.

[3] = test system: HeLa cells; experiment: Cell viability assay (CellTiter-Glo); conditions: doses up to 2 μM
Protocol: As described above, the toxicity of RTIs could impair their ability to halt or block the harmful effects of senescent cells and their ability to prevent or reverse age-related inflammation and disorders.
HeLa cells were treated with the different concentrations of the eight RTI compounds for 48 hours. Cell viability was measured with CellTiter-Glo® luminescent cell viability assay (Promega®) and presented as percentage of cell viability versus untreated cells. Staurosporine, known to induce cell death, was used as a control.

## Nc1nc(=O)n([C@@H]2C=C[C@H](CO)O2)cc1F [Elvucitabine]
[1]; pYX016, 48 H post-transfection, read-out: Mouse L1 activity inhibition IC50, Exp. 1
  IC50: 116 nM
[1]; pYX016, 48 H post-transfection, read-out: Mouse L1 activity inhibition IC50, Exp. 2
  IC50: 106 nM
[1]; pYX016, 48 H, n = 2, read-out: Mouse L1 activity inhibition IC50, Average
  IC50: 111 nM
[1]; read-out: mouse L1 inhibition IC50
  IC50: ~100 nM
[2]; pYX017, 72 H post-transfection, read-out: Human L1 activity inhibition IC50, Exp. 1
  IC50: 94 nM
[2]; read-out: human L1 inhibition IC50
  IC50: ~100 nM
[3]
  toxicity in the cell viability assay: without inducing toxicity
